Measurements published in patent US4695622A, “Hexapeptide” (Vsesojuzny Kardiologichesky Nauchny Tsentr Akademii …, priority 1984, dated 1987).
Residues, ends and D or L forms follow the SMILES beside them.

Tests used:
[1] = tested on: experimental hemorrhagic pancreonecrosis; experiment: Morphological studies of the pancreas in experimental hemorrhagic pancreonecrosis; format: in vivo, dogs; conditions: for Morphology of pancreas, early stages of treatment: tracilol 10,000 units per hour, hexapeptide 0.3 mg/kg
Procedure: (§1) The biological activity of the hexapeptide according to the present invention has been studied in experiments on dogs using an experimental acute pancreatitis model.
(§2) To this end, a similar operation was performed on 10 dogs. Under hexenal narcosis upper-median laparotomy was made. Into the wound a loop of duodenum was introduced with pancreas, cannulated and Wirsung's duct was dressed on a drain Snatorini's duct was additionally dressed too. Then the gall-bladder was punctured, bile was extracted therefrom and injected under pressure into Wirsung's duct at the rate of 0.5 ml per kg of the animal's bodyweight. As a stimulant of the pancreas secretion secretin and cholecystopancreoziimin were used which were intravenously administered at the rate of two units per kg of a dog's bodyweight. For administration of the stimulants of the pancreatic secretion, the hexapeptide according to the present invention and obtaining blood, the femoral vein was catheterized. For the measurement of diuresis and urine examination epicystostomy was effected or both ureters were catheterized. All the experiments were carried out on an empty stomach of the animals.
Three dogs were used in the control group of the experiments. They were treated to induce an experimental pancreatitis only without administration of the hexapeptide according to the present invention; an acute experiment lasted for 6-8 hours, whereafter the dogs were slaughtered by intracardiac administration of hexenal.
(§3) 30 minutes after the administration of bile into Wirsung's duct and then every 2 hours small pieces of pancreas tissue were taken from the animals from various sections for morphological investigations. In the second series of experiments 5 dogs were used. A hemorrhagic pancreonecrosis was induced in them and 2 hours after the development of acute pancreatitis an intravenous administration of the hexapeptide according to the present invention was started at the rate of 0.3 mg per kg of the animal's bodyweight. For enzymological and morphological studies the same biological samples and pieces of tissues of the pancreas were taken. The dogs were slaughtered 6-8 hours after the beginning of the experiment.
(§4) In the third series of experiments two dogs were used. The induced experimental pancreatitis was treated by means of the hexapeptide according to the present invention. The same tests were performed, but the dogs were not slaughtered. 24 hours from the beginning of the experiment and then 7 days and 15 days thereafter they were subjected to relaparotomy, the macroscopic view of pancreas was studied, pieces of the tissue of pancreas were taken for morphological studies.
(§5) The effect of the hexapeptide according to the present invention was compared with that of widely employed preparations--5-fluorouracyl an d tracilol--on the same model of acute pancreatitis.

Acute toxicity (LD50) = conditions: for LD50: acute toxicity, dose causing death of 50% of the animals; for LD50 surpasses the therapeutic dose by: therapeutic dose: 5-fluorouracyl 5 mg/kg, hexapeptide 0.3 mg/kg
[2] = tested on: experimental hemorrhagic pancreonecrosis; experiment: Enzymatic activity in blood serum in experimental hemorrhagic pancreonecrosis (acute pancreatitis model); format: in vivo, dogs
Procedure: as §1, §2
Prior to introduction of bile into Wirsung's duct, background samples of blood, urina and pancreatic juice were taken for special enzymological investigations. After administration of bile into Wirsung's duct the same biological tests were carried out every hour until the experiment was completed. The activity of the following pancreatic enzymes was studied: α-amylase, lipase, total esterase activity, antitryptic activity.
as §3, §4, §5

Solubility of the powder = format: physicochemical
Procedure: The hexapeptide according to the present invention comprises a white powder, well soluble in distilled water, a physiological solution, ethanol; insoluble in ether, ethylacetate, benzene. The melting temperature is 173°-176° C. [α]D^22 =-19.1 (c 0.33 H2 O).

[3] = Effect on cell formula of the blood and immune system; conditions: in vivo
[4] = dogs, developed pancreonecrosis, hexapeptide 0.3 mg/kg

O=c1[nH]cc(F)c(=O)[nH]1 [5-fluorouracyl, reference compound]
Morphology of pancreas 7 days after the beginning of the treatment ([1]; dogs, 5-fluorouracyl 5 mg/kg): pronounced fibrosis of the pancreas with breaking of lobules into fragments
Regeneration of the pancreas ([1]; dogs, 5-fluorouracyl 5 mg/kg, later stages of treatment): incomplete
Morphology of pancreas, early stages of treatment ([1]; dogs, 5-fluorouracyl 5 mg/kg): noticeable inflammatory infiltration of necrotic zones and of the interstice is retained
LD50 (Acute toxicity (LD50)): 750 mg/kg
LD50 surpasses the therapeutic dose by (Acute toxicity (LD50)): 150 times
Total esterase activity in blood serum ([2]; dogs (3), 5-fluorouracyl 5 mg/kg i.v., after 4 hours, value for developed pancreonecrosis 0.58 ± 0.07): 0.56 ± 0.02 μM/ml
Activity of lipase in blood serum ([2]; dogs (3), 5-fluorouracyl 5 mg/kg i.v., after 4 hours, value for developed pancreonecrosis 0.62 ± 0.12): 0.48 ± 0.02 units
Antitryptic activity in blood serum ([2]; dogs (3), 5-fluorouracyl 5 mg/kg i.v., after 4 hours, value for developed pancreonecrosis 22.2 ± 1.4): 20.1 ± 1.2 IU
Activity of alpha-amylase in blood serum ([2]; dogs (3), 5-fluorouracyl 5 mg/kg i.v., after 4 hours, value for developed pancreonecrosis 158.0 ± 18.2): 152.2 ± 24.1 mg/h · ml
Total esterase activity in blood serum ([2]; dogs (3), 5-fluorouracyl 5 mg/kg i.v., after 6 hours, value for developed pancreonecrosis 0.58 ± 0.07): 0.58 ± 0.04 μM/ml
Activity of lipase in blood serum ([2]; dogs (3), 5-fluorouracyl 5 mg/kg i.v., after 6 hours, value for developed pancreonecrosis 0.62 ± 0.12): 0.54 ± 0.08 units
Antitryptic activity in blood serum ([2]; dogs (3), 5-fluorouracyl 5 mg/kg i.v., after 6 hours, value for developed pancreonecrosis 22.2 ± 1.4): 20.1 ± 1.2 IU
Activity of alpha-amylase in blood serum ([2]; dogs (3), 5-fluorouracyl 5 mg/kg i.v., after 6 hours, value for developed pancreonecrosis 158.0 ± 18.2): 153.3 ± 17.1 mg/h · ml
Characteristics of activity of enzymes in blood serum (lipase, esterase, antitryptic), in words ([2]; dogs, developed pancreonecrosis, 5-fluorouracyl 5 mg/kg, tracilol 10,000 units/hour): remain substanctially unchanged

CC(C)C[C@H](NC(=O)[C@H](Cc1ccccc1)NC(=O)CNC(=O)[C@H](C)NC(=O)[C@@H](N)Cc1ccc(O)cc1)C(=O)N[C@@H](CCCNC(=N)N)C(=O)O [Tyrosyl-alanyl-glycyl-phenylalanyl-leucyl-arginine] (H-YAGFLR-OH)
Morphology of hemorrhagic pancreonecrosis one day after the treatment ([1]; dogs, hexapeptide i.v.): positive dynamics
Regeneration of the acinar tissue ([1]; dogs, hexapeptide, 14 days after the beginning of the treatment): complete regeneration of the acinar tissue
Morphology of pancreas, early stages of treatment ([1]; dogs, 5-fluorouracyl 5 mg/kg): absence of signs of hemorrhagic zones of necrosis and hemorrhages into the interstice
Antipancreonecrotic activity ([1]; overall conclusion): exhibits an antipancreonecrotic activity
LD50 (Acute toxicity (LD50)): 150 mg/kg
LD50 surpasses the therapeutic dose by (Acute toxicity (LD50)): 500 times
Total esterase activity in blood serum ([2]; dogs (7), hexapeptide 0.3 mg/kg i.v., after 4 hours, value for developed pancreonecrosis 0.76 ± 0.05): 0.16 ± 0.08 μM/ml
Activity of lipase in blood serum ([2]; dogs (7), hexapeptide 0.3 mg/kg i.v., after 4 hours, value for developed pancreonecrosis 1.15 ± 0.03): 0.25 ± 0.02 units
Antitryptic activity in blood serum ([2]; dogs (7), hexapeptide 0.3 mg/kg i.v., after 4 hours, value for developed pancreonecrosis 26.5 ± 1.3): 78.0 ± 13.1 IU
Activity of alpha-amylase in blood serum ([2]; dogs (7), hexapeptide 0.3 mg/kg i.v., after 4 hours, value for developed pancreonecrosis 178 ± 28.2): 246.2 ± 26.7 mg/n · ml
Total esterase activity in blood serum ([2]; dogs (7), hexapeptide 0.3 mg/kg i.v., after 6 hours, value for developed pancreonecrosis 0.76 ± 0.05): 0.20 ± 0.09 μM/ml
Activity of lipase in blood serum ([2]; dogs (7), hexapeptide 0.3 mg/kg i.v., after 6 hours, value for developed pancreonecrosis 1.15 ± 0.03): 0.40 ± 0.05 units
Antitryptic activity in blood serum ([2]; dogs (7), hexapeptide 0.3 mg/kg i.v., after 6 hours, value for developed pancreonecrosis 26.5 ± 1.3): 72.0 ± 2.5 IU
Activity of alpha-amylase in blood serum ([2]; dogs (7), hexapeptide 0.3 mg/kg i.v., after 6 hours, value for developed pancreonecrosis 178 ± 28.2): 258.2 ± 33.2 mg/n · ml
Activity of lipase in blood serum (in words) [2, 4]: sharply reduced
Increase of the antitryptic activity (in words) [2, 4]: three-time increase
Total esterase activity of blood (in words) [2, 4]: lowered
Synthesis of pancreatic enzymes in acute pancreatitis ([2]; dogs, hexapeptide): effectively inhibits
Solubility (Solubility of the powder; benzene): insoluble
Solubility (Solubility of the powder; distilled water): well soluble
Solubility (Solubility of the powder; ethanol): well soluble
Solubility (Solubility of the powder; ether): insoluble
Solubility (Solubility of the powder; ethylacetate): insoluble
Solubility (Solubility of the powder; physiological solution): well soluble
Cell formula of the blood [3]: does not change the cell formula of the blood
Pathological responses on the part of the immune system [3]: does not cause pathological responses
Processes of homeopoiesis [3]: does not inhibit the processes of homeopoiesis
